Several values for one entry are separate records, joined by “and”; a condition that tells them apart may be missing. Equal entries are not always repeated.
How the values were obtained:
[1] = tested on: Plasmodium falciparum strain 3D7 whole parasites; parameters: method as in PMID 32808790; conditions: in vitro, read-out: IC50 against Plasmodium falciparum strain 3D7; cited from earlier work
[2] = tested on: transgenic P. berghei line 676m1cl1 (PbGFP-Luccon), ANKA strain; experiment: In vivo efficacy in P. berghei infected mice (luciferase activity); parameters: species or system Plasmodium berghei in Swiss Webster female mice; conditions: for Parasitaemia (Luminescence arbitrary units), Average ± SD: 4 days from 48 h post-infection; for in vivo activity (in words): strasseriolide D 22 mg/kg i.p. (p < 0.01 vs. vehicle), strasseriolide C 50 mg/kg i.p. (not statistically significant); for parasitaemia level lower compared to controls treated with vehicle: strasseriolide D 22 mg/kg i.p., strasseriolide C 50 mg/kg i.p., 4 days
Description: In vivo efficacy experiments were performed at the Anti-infectives Screening Core Services facility of the New York University School of Medicine. The transgenic P. berghei line 676m1cl1 parasite (PbGFP-Luccon) expressing the fusion GFP (mutant 3) and firefly luciferase (LucIAV) proteins generated in the reference clone of ANKA strain cl15cy1 was used. Swiss Webster female mice were infected with transgenic P. berghei line 676m1cl1 (PbGFP-Luccon) ANKA-infected 10³ red blood cells. Treatment was then started 48 h post-parasite infection by i.p. dosage of 22 mg/kg of strasseriolide D and 50 mg/kg of strasseriolide C. Vehicle only (PBS 2% methylcellulose, 0.5% Tween 80) and 20 mg/kg chloroquine were used as negative and positive controls. The infected mice were treated for four days, after which luciferase activity of the parasites was quantified 5 to 10 min after i.p. injection of 150 mg/kg D-Luciferin Potassium-salt (Goldbio) dissolved in PBS using an IVIS® Lumina II imager on the fifth day.
The Genedata Screener online application (Genedata AG, Basel, Switzerland) was used to compute IC50 values. The Smart Fit strategy with Hill model was selected as the choice for curve fitting. Where applicable, data are presented as mean ± standard deviation (SD). In Fig. 3, the significant differences between the vehicle controls and test compounds were calculated by the Student’s t test.

[3] = Quantification of compounds in mice plasma by LC-MS-MS and PK parameters after i.v. injection; type: in vivo; conditions: mouse, in vivo, iv, 25 mg/kg
Description: Three Balb/C mice (6–8 weeks old) were intravenously injected with 25 mg/kg of strasseriolide D dissolved in 200 µL of vehicle (0.5%HPMC, 0.5% Tween 80 and 0.5% Benzyl alcohol in water). Blood samples were collected by pricking the […] on the leg of each mouse at time points 1.5 (T 1.5 h), 5 (T 5 h) and 24 h (T 24 h). From the harvested blood, 50 µL plasma were prepared for all the samples and stored at -80 °C until needed. A previously developed LC–MS–MS method (see supporting information) was used to determine the plasma concentration of strasseriolide D as described below.
Ten millimolar (10 mM) DMSO stocks of strasseriolide D (the test compound) and strasseriolide A (used as internal standard,) were prepared. From the strasseriolide D stock, a 59.7 µM (27,000 ppb) working concentration was made in DMSO and an aliquot of this was serially diluted (½) in reconstitution solution (1:1 of acetonitrile: H2O with 0.1% formic acid) to create a six-point calibration curve in triplicate. Three different quality control (QC) concentrations of strasseriolide D at 59.7, 0.74, and 0.25 µM (i.e. 27,000 ppb, 333 ppb and 111 ppb) were also prepared in duplicate. From the strasseriolide A (internal standard) stock, a 6.2 µM (2700 ppb) working concentration was prepared in DMSO.
Blank mouse plasma (prepared from non-injected mouse) was retrieved from the freezer (− 80 °C) and kept on ice to thaw. The sample was vortexed adequately and 15 µL aliquots transferred into 0.7 mL Eppendorf tubes after which 35 µL of Milli-Q water were added and vortexed. Triplicate sets of the diluted plasma were then respectively spiked with 2 uL of each concentration of the calibration curves of strasseriolide D. Another triplicate set of the diluted plasma was spiked with 2 µL of each concentration of the standard QC solutions. All the above samples were also spiked with 2 µL of strasseriolide A (the internal standard)). To serve as blank samples, a fresh triplicate set of diluted plasma were spiked with 4 µL of DMSO. Non-matrix samples were also prepared by spiking 100 µL aliquots of reconstitution solution with 2 µL of the standard QC solutions and 2 µL of internal standard.
Fifteen microlitres (15 µL) plasma from the various time points of the strasseriolide D-injected mice, were respectively transferred into 0.7 mL Eppendorf tubes. To each sample, 37 µL of Milli-Q water were added, vortexed and spiked with 2 µL of strasseriolide A (internal standard). Two hundred microlitres (200 µL) of ice-cold acetonitrile were added to all of the matrix (plasma-containing) samples and centrifuged at 13,300 rpm for 15 min at 4 °C. Subsequently, 180 µL aliquots were carefully transferred (without disturbing the protein precipitate) from each tube into clean HPLC vials and evaporated to dryness in an EZ2 Genevac at room temperature. The dried samples were then reconstituted in 40 µL of reconstitution solution by vortexing. The samples were placed in an auto-sampler drawer for LC–MS–MS analysis and quantification of strasseriolide D (the test compound) in mice plasma.
Similar sample preparation and LC–MS–MS analysis were respectively performed for mice intravenously injected with strasseriolides A and C as test compounds and mice blood samples collected at 30 min (T 30 M), 2 h (T 2 h), 6 h (T 6 h) and 24 h (T 24 h). […] For strasseriolides A, B and C as test compounds; strasseriolides C, D and B were respectively used as internal standards. After LC–MS–MS analysis, the plasma concentration of compound vs. time data was determined for each strasseriolide.
116 Table S2. QC table used to calculate the precision and accuracy of the method.
Compound Expected No. Experimental STD % %
conc. in values mean conc. deviation CV Accuracy
118 (5) The mean recovery rate for the test compound (strasseriolide B) – this was calculated
119 to be 29 % by comparing the plasma QC peak area ratios at the established retention time […]

[4] = Balb/C, Calc. Conc. in plasma, individual mice
[5] = Balb/C, T1/2 (apparent terminal elimination half-life)

Row | Structure (SMILES) | IC50 [1] [nM] | in vivo activity (in words) [2] | parasitaemia level lower compared to controls treated with vehicle [2] [%] | AUC 0-t/0-inf_obs ([3]; Balb/C) | AUC(0-inf) ([3]; Balb/C) | C0 ([3]; Balb/C) | Clast_obs/Cmax ([3]; Balb/C) | Cmax ([3]; Balb/C) | MRT ([3]; Balb/C) [h] | MRT inf ([3]; Balb/C) [h] | Tmax ([3]; Balb/C) [h] | Vss_obs ([3]; Balb/C) | Vz_obs (plasma distribution volume) ([3]; Balb/C) [L/kg] | k el ([3]; Balb/C) [s⁻¹] | AUC(0-t) ([3]; Balb/C, AUC 0-t) | AUC(0-t) ([3]; Balb/C, AUC0−t) [µM·h] | concentration at 24 h ([3]; Balb/C, Ave. Conc. in plasma) [nM] | concentration at 24 h [3, 4] | concentration at 24 h ([3]; Balb/C, Plasma Conc. @T24 h) [nM] | half-life [3, 5] [h] | further results
1 | C/C1=C\[C@H](C)C(=O)C[C@@H](O)/C(C)=C/[C@H](C)C[C@@H](C)CC[C@@H]([C@@H](C)C(=O)O)OC(=O)[C@@H](C)C1 [Strasseriolide C, strasseriolide C] | 123 | moderate in vivo activity | 30 | 0.9595 | 359 ng·h/mL and 0.798 µM·h | 203 ng/mL and 452 nM | 0.01432 | 111 ng/mL and 246 nM | 4.7 | 4.71 | 0.5 | 0.3281 (mg/kg)/(ng/ml) | 636.8 | 3.04e-05 | 345 ng·h/mL and 0.766 µM·h | 0.766 | 3.54 | 2.04 ng/mL and 4.53 nM | 3.5 ± 0.9 | 6.3 | Parasitaemia (Luminescence arbitrary units), Average ± SD ([2]; Table S7/Fig. 3A experiment: strasseriolide C 50 mg/kg i.p., chloroquine 20 mg/kg, read day 5, four replicates): 3.66 × 10^6 ± 2.23 × 10^6 Luminescence arbitrary units; concentration at 0.5 h ([3]; Balb/C, Ave. Conc. in plasma): 246 nM; concentration at 2 h ([3]; Balb/C, Ave. Conc. in plasma): 40 nM; concentration at 6 h ([3]; Balb/C, Ave. Conc. in plasma): 24 nM; concentration at 0.5 h [3, 4]: 122 ng/mL and 271 nM; concentration at 2 h [3, 4]: 20.7 ng/mL and 46 nM; concentration at 6 h [3, 4]: 11.4 ng/mL and 23.1 nM; half-life ([3]; Balb/C, t1/2): 6.34 h; Cl_obs [3]: 0.06959 (mg/kg)/(ng/ml)/h
2 | C/C1=C\[C@H](C)[C@@H](O)C[C@@H](O)/C(C)=C/[C@H](C)C[C@@H](C)CC[C@@H]([C@@H](C)C(=O)O)OC(=O)[C@@H](C)C1 [Strasseriolide D, strasseriolide D] | 128 | significantly lowered parasitaemia in vivo | 70 | 0.8996 | 5050 ng·h/mL and 11.2 µM·h | 929 ng/mL and 2.06 µM | 0.08582 | 564 ng/mL and 1.25 µM | 8 | 8.02 | 1.5 | 0.03969 (mg/kg)/(ng/ml) | 51.9 | 2.65e-05 | 10.1 µM·h and 4550 ng·h/mL | 10.1 | 107 | 49.2 ng/mL and 109 nM | 107 ± 5 | 7.3 | Parasitaemia (Luminescence arbitrary units), Average ± SD ([2]; Table S8/Fig. 3B experiment: strasseriolide D 22 mg/kg i.p., chloroquine 20 mg/kg, read day 5, five replicates): 1.25 × 10^5 ± 1.04 × 10^5 Luminescence arbitrary units; Parasitaemia (Luminescence arbitrary units), single replicates ([2]; Table S8 experiment: strasseriolide D 22 mg/kg i.p., chloroquine 20 mg/kg, individual mice): 2.56 × 10^4 Luminescence arbitrary units and 6.93 × 10^3 Luminescence arbitrary units; concentration at 1.5 h ([3]; Balb/C, Ave. Conc. in plasma): 1250 nM; concentration at 5 h ([3]; Balb/C, Ave. Conc. in plasma): 389 nM; concentration at 5 h [3, 4]: 168 ng/mL and 431 nM; half-life ([3]; Balb/C, t1/2): 7.27 h; Cl_obs [3]: 0.004946 (mg/kg)/(ng/ml)/h
